The values that follow come from paper PMC6264117, “Label-Free Time-Gated Luminescent Detection Method for the Nucleotides with Varying Phosphate Content” (Sensors (Basel, Switzerland), 2018).

Molecules are shown by their SMILES.

The target of this assay is T1, K-Ras (Homo sapiens, UniProt P01116).
T1 construct: gene KRAS; res; 2-188; with SOS^cat (res. 564-1049); p120GAP (res. 714-1047) in the cycling assay
Put plainly: Label-free Tb(III) luminescence GTPase cycling assay (Probe […]); confirmed by QRET and by SOS^cat nucleotide exchange assays (IC50 […]). It is filed as biochemical.

T1 sequence (Q07889 564-1049): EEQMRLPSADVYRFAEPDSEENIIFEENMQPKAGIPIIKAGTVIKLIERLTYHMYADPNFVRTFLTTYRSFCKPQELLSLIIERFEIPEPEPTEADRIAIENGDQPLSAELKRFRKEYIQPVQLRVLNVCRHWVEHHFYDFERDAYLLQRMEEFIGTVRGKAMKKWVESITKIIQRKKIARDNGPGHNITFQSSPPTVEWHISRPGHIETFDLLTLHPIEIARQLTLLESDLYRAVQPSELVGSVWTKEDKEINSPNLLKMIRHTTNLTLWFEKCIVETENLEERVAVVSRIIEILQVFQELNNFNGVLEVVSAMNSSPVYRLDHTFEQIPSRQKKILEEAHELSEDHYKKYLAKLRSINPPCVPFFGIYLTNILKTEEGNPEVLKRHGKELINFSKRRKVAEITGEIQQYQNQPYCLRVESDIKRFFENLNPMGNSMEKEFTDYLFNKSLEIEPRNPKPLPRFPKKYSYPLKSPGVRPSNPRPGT
T1 sequence (P20936 714-1047, further chain): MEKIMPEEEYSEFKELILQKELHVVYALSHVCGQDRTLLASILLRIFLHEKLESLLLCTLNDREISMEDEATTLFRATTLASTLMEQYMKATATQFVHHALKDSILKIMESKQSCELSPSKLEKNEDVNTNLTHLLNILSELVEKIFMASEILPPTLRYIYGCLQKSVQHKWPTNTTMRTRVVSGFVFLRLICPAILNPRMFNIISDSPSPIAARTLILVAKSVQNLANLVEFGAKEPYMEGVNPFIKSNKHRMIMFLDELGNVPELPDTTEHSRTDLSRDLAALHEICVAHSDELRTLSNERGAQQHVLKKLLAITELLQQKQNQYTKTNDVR
T1 sequence (P01116 2-188): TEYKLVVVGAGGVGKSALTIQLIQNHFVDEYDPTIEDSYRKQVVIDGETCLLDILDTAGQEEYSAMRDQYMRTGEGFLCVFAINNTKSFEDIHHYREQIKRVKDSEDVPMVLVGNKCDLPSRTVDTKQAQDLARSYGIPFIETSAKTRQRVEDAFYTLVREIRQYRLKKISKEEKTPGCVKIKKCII

The molecule `Cc1[nH]c2cc(Cl)cc(Cl)c2c1CCN` [DCAI, 2-(4,6-dichloro-2-methyl-1h-indol-3-yl)ethanamine] came in with a half-maximal inhibitory concentration (IC50) of 158 ± 13 µM.
